Results on twelve compounds are retold here after publication PMC4317638 (Emerging Microbes & Infections, 2014).

A short description of data set [1]: in vitro. As to conditions: human, Cytotoxicity IC50.
Data set [2] deals with Ebola VLP entry into HeLa cells. The data set is described as follows: microbe, parasite or virus in culture. As to conditions: for IC50 / IC90 / Emax: Zaire ebolavirus, HeLa; for IC90: read-out: Block Ebola VLP entry IC90; for Emax: read-out: Block Ebola VLP entry Max. Inh. Type of data set: cell-based, Ebola virus.
[3] abbreviates: read-out: Block Ebola VLP entry IC50.
Where [4] appears, read: read-out: IC50 of blocking Ebola VLP entry.

Like-named read-outs stand apart in the source and are kept apart here.

The term IC50 denotes the concentration at which inhibition is half-maximal. The term IC90 denotes the concentration needed for an effect of 90%. As for `CC[C@@H]([C@H](C)O)n1ncn(-c2ccc(N3CCN(c4ccc(OC[C@@H]5CO[C@@](Cn6cncn6)(c6ccc(F)cc6F)C5)cc4)CC3)cc2)c1=O` [Posaconazole], the 50% inhibitory concentration (IC50) in data set [1] is > 500 µM. Further, in data set [2], the “Selectivity Index” value is >65 fold, the 90% effect concentration (IC90) was 8.33 µM and the Emax was 77%. In addition, in data set [2] (setting [3]), the 50% inhibitory concentration (IC50) is 7.69 µM.

With `CCCN(CCC)C(=O)C(CCC(=O)OCCCN1CCN(CCOC(=O)Cc2c(C)n(C(=O)c3ccc(Cl)cc3)c3ccc(OC)cc23)CC1)NC(=O)c1ccccc1` (stereo not drawn) [Proglumetacin], the 50% inhibitory concentration (IC50) in data set [1] was > 500 µM. Also, in data set [2], the “Selectivity Index” value is reported as >73 fold, the IC90 amounted to 17.3 µM and the Emax was 93%. Also, the IC50 in data set [2] (setting [3]) amounted to 6.85 µM.

For the compound `CCCNCC(O)COc1ccccc1C(=O)CCc1ccccc1` (stereo not drawn) [Propafenone], the IC50 in data set [1] is > 500 µM. Also, in data set [2], the “Selectivity Index” value is reported as >80 fold, the IC90 was 23.8 µM and the Emax stood at 100%. The IC50 in data set [2] (setting [3]) was 6.25 µM. For the same compound, the IC50 in data set [2] (setting [4]) was 6.2 µM.

Take `O=C(c1ccc(OCCN2CCCCC2)cc1)c1c(-c2ccc(O)cc2)sc2cc(O)ccc12` [Raloxifene/Evista, Raloxifene]: in data set [1], the IC50 was > 500 µM. Besides, in data set [2], the “Selectivity Index” value is listed as >271 fold, the IC90 stood at 9.01 µM and the Emax came to 100%. The IC50 in data set [2] (setting [3]) stood at 1.84 µM. The IC50 in data set [2] (setting [4]) was determined as 1.8 µM.

For the compound `OCc1cc(C(O)CNCCCCCCOCCCCc2ccccc2)ccc1O` (stereo not drawn) [Salmeterol], the IC50 in data set [1] was > 500 µM. Also, in data set [2], the “Selectivity Index” value is on record as >52 fold, the IC90 worked out at 13 µM and the Emax turned out to be 90%. Further, the IC50 in data set [2] (setting [3]) was 9.68 µM.

The compound `CCN(CC)CCNC(=O)c1c(C)[nH]c(/C=C2\C(=O)Nc3ccc(F)cc32)c1C` [Sunitinib] yielded an IC50 in data set [1] of 148 µM. In data set [2], the “Selectivity Index” value is recorded as 77 fold, the IC90 stood at 3.82 µM and the Emax turned out to be 90%. Moreover, the IC50 in data set [2] (setting [3]) was 1.91 µM.

In turn, `CC/C(=C(\c1ccccc1)c1ccc(OCCN(C)C)cc1)c1ccccc1` [Tamoxifen] gave an IC50 in data set [1] of 99.8 µM. Further, in data set [2], the IC90 came out at 3.15 µM and the Emax was 97%.

On to `CN1CCN(CCCN2c3ccccc3Sc3ccc(S(=O)(=O)N(C)C)cc32)CC1` [Thioproperazine], for which the IC50 in data set [1] is > 500 µM. Besides, the IC50 in data set [2] (setting [3]) is 4.32 µM. Besides, in data set [2], the IC90 turned out to be 12.5 µM and the Emax turned out to be 103%.

Compound `CN1CCN(CC/C=C2/c3ccccc3Sc3ccc(S(=O)(=O)N(C)C)cc32)CC1` [Thiothixene] registered an IC50 in data set [1] of 70.1 µM. In data set [2], the “Selectivity Index” value worked out at 36 fold, the IC90 stood at 7.18 µM and the Emax is 100%. In data set [2] (setting [3]), the IC50 is 1.92 µM. In addition, the concentration for half-maximal inhibition (IC50) in data set [2] (setting [4]) amounted to 1.9 µM.

As to `CCN(CC)CCOc1ccc2c(c1)C(=O)c1cc(OCCN(CC)CC)ccc1-2` [Tilorone], the IC50 in data set [1] is > 500 µM. For the same compound, in data set [2], the “Selectivity Index” value is given as >146 fold, the IC90 came out at 19 µM and the Emax is 100%. Moreover, the IC50 in data set [2] (setting [3]) turned out to be 3.43 µM.

As for `CC[C@@]1(O)C(=O)OCc2c1cc1n(c2=O)Cc2cc3c(CN(C)C)c(O)ccc3nc2-1` [Topotecan], in data set [1], the IC50 is > 500 µM. Moreover, in data set [2], the “Selectivity Index” value is listed as >130 fold, the IC90 was 10.8 µM and the Emax is 107%. The half-maximal inhibitory concentration (IC50) in data set [2] (setting [3]) is 3.85 µM.

As for `CC[C@]1(O)C[C@@H]2CN(CCc3c([nH]c4ccccc34)[C@@](C(=O)OC)(c3cc4c(cc3OC)N(C)[C@H]3[C@@](O)(C(=O)OC)[C@H](OC(C)=O)[C@]5(CC)C=CCN6CC[C@]43[C@@H]65)C2)C1` [Vinblastine], the IC50 in data set [1] is > 500 µM. In data set [2], the “Selectivity Index” value is >10 324 fold, the IC90 is 0.13 µM and the Emax stood at 87%. In addition, in data set [2] (setting [3]), the IC50 amounted to 0.048 µM.
